# Patent US6203824A (priority 1992, dated 2001)
# Where “and” joins values, the source holds several entries; their conditions need not be identical. Equal values may be shown once. Read-outs that look alike come from different tables or passages of the source.
# Assays:
# Sitophilus oryzae = details: in vivo; cited from earlier work
# [1] = test system: Oryzsephilus surinamensis; details: in vivo; cited from earlier work
# Tenebroides mauritanicus = details: in vivo; cited from earlier work
# Tribolium castaneum = details: in vivo; cited from earlier work
# Tribolium confusum = details: in vivo; cited from earlier work
# Rhyzopertha dominica = details: in vivo; cited from earlier work
# Sitophilus granarius = details: in vivo; cited from earlier work
# Trogoderma granarium = details: in vivo; cited from earlier work
# R. dominica = details: in vivo
# [2] = test system: Coptotermes acinaciformis; experiment: whole plant or invertebrate; details: inhaled or nasal, 24 h, read-out: Corrected mortality
# [3] = test system: grains of Australian standard white wheat and malting barley; details: in vivo
# Cold blooded animals = details: in vivo; cited from earlier work
# [4] = test system: Liposcelis bostrychophilus; details: in vivo
# S. oryzae [5] = details: in vivo
# B. tyroni [6] = details: queensland fruit fly, in vivo, inhaled
# [7] = 25° C.; cited from earlier work
# L. destructor = details: in vivo
# mould = details: in vivo
# B. tyroni [8] = experiment: whole plant or invertebrate; details: Bactrocera, inhaled or nasal, read-out: Corrected mortality
# [9] = moist soil
# [10] = type: physicochemical; details: empty vial, 15 min
# Rabbits = details: rabbit, in vivo; cited from earlier work
# S. oryzae [11] = test system: S. oryzae; design: species or system Sitophilus oryzae; details: in vivo
# Mice = details: cited from earlier work
smiles,measurement,setting,value
"P [Phosphine, phosphine]",LD99 (concentration x time product),Sitophilus oryzae,0.36
same,LD99 (concentration x time product),[1],0.96
same,LC99 (concentration x time product),Tenebroides mauritanicus,~5.0
same,LC90 (concentration x time product),Tribolium castaneum,11.5
same,LC99 (concentration x time product),Tribolium confusum,0.48
same,LD99 (concentration x time product),Rhyzopertha dominica,0.6
same,LC99 (concentration x time product),Sitophilus granarius,1.01
same,100% mort. (concentration x time product),Trogoderma granarium,331.0
"ClCCCl [Ethylene dichloride, ethylene dichloride]",LC95 (concentration x time product),Sitophilus oryzae,738.0
same,LC95 (concentration x time product),[1],462.0
same,LC99 (concentration x time product),Tenebroides mauritanicus,1728.0
same,LC90 (concentration x time product),Tribolium castaneum,462.0
same,LC99 (concentration x time product),Tribolium confusum,365.0
same,LC95 (concentration x time product),Rhyzopertha dominica,636.0
same,LC99 (concentration x time product),Sitophilus granarius,230.0
same,LC95 (concentration x time product),Trogoderma granarium,2080.5
"ClC(Cl)(Cl)Cl [Carbon tetrachloride, carbon tetrachloride]",LC95 (concentration x time product),Sitophilus oryzae,220.0
same,LD50 (concentration x time product),Tenebroides mauritanicus,400.00
same,LC90 (concentration x time product),Tribolium castaneum,600.0
same,LC99 (concentration x time product),Tribolium confusum,025.0
same,LC99 (concentration x time product),Sitophilus granarius,495.0
"C=CC#N [Acrylonitrile, acrylonitrile]",LC95 (concentration x time product),Sitophilus oryzae,10.8
same,LC95 (concentration x time product),[1],8.4
same,LC99 (concentration x time product),Tenebroides mauritanicus,40.0
same,LC99 (concentration x time product),Tribolium confusum,19.5
same,LC95 (concentration x time product),Rhyzopertha dominica,8.4
same,LC99 (concentration x time product),Sitophilus granarius,11.0
same,LC95 (concentration x time product),Trogoderma granarium,48.0
"C1CO1 [Ethylene oxide, ethylene oxide]",LC95 (concentration x time product),Sitophilus oryzae,62.0
same,LC95 (concentration x time product),[1],60.0
same,LC99 (concentration x time product),Tenebroides mauritanicus,175.0
same,LD99 (concentration x time product),Tribolium castaneum,135.0
same,LC99 (concentration x time product),Tribolium confusum,127.5
same,LC95 (concentration x time product),Rhyzopertha dominica,69.6
same,LC99 (concentration x time product),Sitophilus granarius,36.0
same,LC95 (concentration x time product),Trogoderma granarium,176.0
"O=S(=O)(F)F [Sulphuryl fluoride, sulphuryl fluoride]",LC99 (concentration x time product),Tenebroides mauritanicus,81.5
same,LC99 (concentration x time product),Tribolium confusum,55.0
same,LC99 (concentration x time product),Sitophilus granarius,17.5
O=C=S [carbonyl sulphide],No. emerging,R. dominica,2
same,"control of all immature stages of R. dominica, on average","R. dominica; rhyzopertha dominica, 24 h",93.4 per cent
same,mortality at 192 mg h/L,[2],0%
same,mortality at 600 mg h/L,[2],100%
same,"% Germination, final count (10 days)",[3],96% and 93% and 92%
same,"% Germination, first count (4 days)",[3],93% and 91% and 89%
same,effect on seed germination or vigour,[3],no effect on seed germination or vigour was detected
same,resistance compared with warm-blooded animals,Cold blooded animals,more resistance
same,Minimum effective tested dose,[4],22.5
same,psocids dead after exposure,[4],all 200 of the psocids were dead
same,No. emerged,S. oryzae [5],2
same,Corrected mortality,B. tyroni [6]; 6 h,100%
same,Corrected mortality,B. tyroni [6]; 24 h,100%
same,solubility in water,[7],1.4 grams per litre
same,Minimum effective tested dose,L. destructor,120
same,Corrected mortality,"L. destructor; mite, inhaled, 6 h",100%
same,discolouration of wheat by mould,mould,no discolouration occurred
same,mortality at 120 mg h/L,B. tyroni [8]; 6 h,12.6%
same,mortality at 150 mg h/L,B. tyroni [8]; 6 h,13.5%
same,mortality at 210 mg h/L,B. tyroni [8]; 6 h,100%
same,mortality at 300 mg h/L,B. tyroni [8]; 6 h,91.7%
same,mortality at 360 mg h/L,B. tyroni [8]; 6 h,100%
same,mortality at 480 mg h/L,B. tyroni [8]; 6 h,99.2%
same,mortality at 600 mg h/L,B. tyroni [8]; 6 h,100%
same,mortality at 720 mg h/L,B. tyroni [8]; 6 h,99.7%
same,mortality at 870 mg h/L,B. tyroni [8]; 6 h,93.3%
same,mortality at 120 mg h/L,B. tyroni [8]; 24 h,37.1%
same,mortality at 180 mg h/L,B. tyroni [8]; 24 h,4.9%
same,mortality at 240 mg h/L,B. tyroni [8]; 24 h,19.5%
same,mortality at 366 mg h/L,B. tyroni [8]; 24 h,53.3%
same,mortality at 420 mg h/L,B. tyroni [8]; 24 h,88.8%
same,mortality at 480 mg h/L,B. tyroni [8]; 24 h,98.3%
same,mortality at 540 mg h/L,B. tyroni [8]; 24 h,98.3%
same,mortality at 600 mg h/L,B. tyroni [8]; 24 h,100%
same,concentration as per cent of the calculated initial concentration,[9]; 2 min,62 per cent
same,concentration as per cent of the calculated initial concentration,[9]; 5 h,18 per cent
same,concentration as per cent of the calculated initial concentration,[9]; 20 h,5.9 per cent
same,recovery of the calculated applied dose,[10],98.4 per cent
same,concentration in air above which rabbits die quickly,Rabbits,more than 0.3 per cent
same,effects after exposure,Rabbits,some ill effects
same,Number of insects emerging from culture,S. oryzae [11],2
same,time to death,Mice; 1200 ppm,35 min
same,time to death,Mice; 2900 ppm,11/2
same,time to death,Mice; 8900 ppm,3/4
same,concentration in air above which mice die quickly,"Mice; mouse, in vivo",more than 0.3 per cent
same,effects after exposure,"Mice; mouse, in vivo",no perceptible effects
"BrCCBr [Ethylene dibromide, ethylene dibromide]",LC95 (concentration x time product),Sitophilus oryzae,60.0
same,LC95 (concentration x time product),[1],19.2
same,LC99 (concentration x time product),Tenebroides mauritanicus,125.00
same,LD95 (concentration x time product),Tribolium castaneum,22.0
same,LC99 (concentration x time product),Tribolium confusum,31.0
same,LC95 (concentration x time product),Rhyzopertha dominica,37.2
same,LC99 (concentration x time product),Sitophilus granarius,34.5
same,LC95 (concentration x time product),Trogoderma granarium,80.0
"CBr [Methyl bromide, methyl bromide]",LD99 (concentration x time product),Sitophilus oryzae,30.0
same,LC95 (concentration x time product),[1],40.8
same,solubility in water,[7],13.4 grams per litre
same,LC99 (concentration x time product),Tenebroides mauritanicus,115.0
same,LD95 (concentration x time product),Tribolium castaneum,62.0
same,LC99 (concentration x time product),Tribolium confusum,64.0
same,LC95 (concentration x time product),Rhyzopertha dominica,33.0
same,LC99 (concentration x time product),Sitophilus granarius,28.0
same,LC95 (concentration x time product),Trogoderma granarium,136.0
"S=C=S [Carbon disulphide, carbon disulphide]",LC95 (concentration x time product),Sitophilus oryzae,300.0
same,LC95 (concentration x time product),[1],408.0
same,solubility in water,[7],2.2 grams per litre
same,LC99 (concentration x time product),Tenebroides mauritanicus,828.00
same,LC99 (concentration x time product),Tribolium confusum,560.00
same,LC95 (concentration x time product),Rhyzopertha dominica,294.0
same,LC99 (concentration x time product),Sitophilus granarius,325.0
same,LC95 (concentration x time product),Trogoderma granarium,696.0
